Laboratory results reported in patent US12030878B2 (BRISTOL-MYERS SQUIBB COMPANY, priority 2017, dated 2024).

What was measured:
Assay type in all cases: cell-based
human TLR9 = target: T1, human TLR9 (Homo sapiens, UniProt Q9NR96); test: TLR9 inhibition reporter assay (HEK-Blue SEAP); details: HEK-Blue cells overexpressing human TLR9, stimulated with ODN2006 5 nM, 22 hour incubation
T1 construct: host or cells: HEK-Blue cells
T1 sequence (Q9NR96 26-1032): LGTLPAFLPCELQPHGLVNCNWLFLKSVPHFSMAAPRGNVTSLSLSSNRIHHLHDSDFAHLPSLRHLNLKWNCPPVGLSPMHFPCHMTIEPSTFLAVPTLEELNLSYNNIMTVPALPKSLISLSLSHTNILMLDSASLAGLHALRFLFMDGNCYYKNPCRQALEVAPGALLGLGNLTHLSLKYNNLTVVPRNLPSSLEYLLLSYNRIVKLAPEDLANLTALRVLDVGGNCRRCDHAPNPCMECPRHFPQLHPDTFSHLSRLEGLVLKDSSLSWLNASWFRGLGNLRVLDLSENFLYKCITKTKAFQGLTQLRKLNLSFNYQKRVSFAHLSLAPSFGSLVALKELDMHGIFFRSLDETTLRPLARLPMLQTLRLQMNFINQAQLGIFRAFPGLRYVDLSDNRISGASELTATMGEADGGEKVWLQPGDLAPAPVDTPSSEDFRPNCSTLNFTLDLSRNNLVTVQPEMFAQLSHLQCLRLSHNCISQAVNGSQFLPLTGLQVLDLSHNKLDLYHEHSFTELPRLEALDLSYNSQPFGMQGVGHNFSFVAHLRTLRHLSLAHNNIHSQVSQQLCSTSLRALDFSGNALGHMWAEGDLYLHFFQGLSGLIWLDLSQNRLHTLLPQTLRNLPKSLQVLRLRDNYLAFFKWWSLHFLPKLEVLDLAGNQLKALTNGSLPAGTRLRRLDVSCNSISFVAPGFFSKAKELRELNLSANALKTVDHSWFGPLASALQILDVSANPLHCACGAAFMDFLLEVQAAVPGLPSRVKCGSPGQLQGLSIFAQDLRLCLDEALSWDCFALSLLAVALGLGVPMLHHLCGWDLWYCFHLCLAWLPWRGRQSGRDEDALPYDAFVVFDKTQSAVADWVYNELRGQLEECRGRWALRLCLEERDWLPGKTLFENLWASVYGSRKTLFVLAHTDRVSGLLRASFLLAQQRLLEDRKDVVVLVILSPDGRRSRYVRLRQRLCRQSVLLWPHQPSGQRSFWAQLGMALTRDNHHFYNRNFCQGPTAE
Method in brief: (§1)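 Stimulation followed a 30 min room-temperature compound exposure (final 0.05 nM-50 μM): TLR7 cells with 7.5 μM gardiquimod, TLR8 with 15.9 μM R848, TLR9 with 5 nM ODN2006. After 22 h at 37 °C, secreted alkaline phosphatase was detected colorimetrically and inhibition calculated against DMSO and known-inhibitor controls.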

human TLR8 = target: T2, human TLR8 (Homo sapiens, UniProt Q9NR97); test: TLR8 inhibition reporter assay (HEK-Blue SEAP); details: HEK-Blue cells overexpressing human TLR8, stimulated with R848 15.9 μM, 22 hour incubation
T2 construct: host or cells: HEK-Blue cells
T2 sequence (Q9NR97 27-1041): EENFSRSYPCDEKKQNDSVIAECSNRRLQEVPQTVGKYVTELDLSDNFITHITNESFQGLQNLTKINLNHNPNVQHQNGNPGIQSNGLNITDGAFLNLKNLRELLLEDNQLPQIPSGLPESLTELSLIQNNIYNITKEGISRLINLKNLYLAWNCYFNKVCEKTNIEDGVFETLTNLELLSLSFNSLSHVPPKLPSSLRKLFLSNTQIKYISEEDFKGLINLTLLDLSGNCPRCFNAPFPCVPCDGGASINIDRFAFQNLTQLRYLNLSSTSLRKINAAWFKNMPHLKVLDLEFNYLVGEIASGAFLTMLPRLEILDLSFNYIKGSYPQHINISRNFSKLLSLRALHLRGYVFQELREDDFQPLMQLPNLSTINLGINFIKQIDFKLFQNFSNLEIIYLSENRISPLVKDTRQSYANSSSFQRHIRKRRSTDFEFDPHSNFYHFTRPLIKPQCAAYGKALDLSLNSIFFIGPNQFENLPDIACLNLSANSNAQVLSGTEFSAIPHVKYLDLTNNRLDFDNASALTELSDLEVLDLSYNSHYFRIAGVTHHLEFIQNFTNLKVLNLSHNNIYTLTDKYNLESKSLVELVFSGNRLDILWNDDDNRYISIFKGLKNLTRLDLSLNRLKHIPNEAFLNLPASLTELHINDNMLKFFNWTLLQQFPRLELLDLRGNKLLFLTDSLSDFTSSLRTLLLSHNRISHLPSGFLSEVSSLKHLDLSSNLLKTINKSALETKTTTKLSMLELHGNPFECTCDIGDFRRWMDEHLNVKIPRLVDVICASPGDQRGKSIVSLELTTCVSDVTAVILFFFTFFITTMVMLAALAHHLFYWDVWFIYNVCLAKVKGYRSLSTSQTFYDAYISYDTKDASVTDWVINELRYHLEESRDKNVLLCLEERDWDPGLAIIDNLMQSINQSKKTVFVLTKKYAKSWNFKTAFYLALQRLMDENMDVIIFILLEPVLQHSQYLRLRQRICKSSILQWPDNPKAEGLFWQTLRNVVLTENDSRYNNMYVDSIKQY
Method in brief: as §1

human TLR7 = target: T3, human TLR7 (Homo sapiens, UniProt Q9NYK1); test: TLR7 inhibition reporter assay (HEK-Blue SEAP); details: HEK-Blue cells overexpressing human TLR7, stimulated with gardiquimod 7.5 μM, 22 hour incubation
T3 construct: host or cells: HEK-Blue cells
T3 sequence (Q9NYK1 27-1049): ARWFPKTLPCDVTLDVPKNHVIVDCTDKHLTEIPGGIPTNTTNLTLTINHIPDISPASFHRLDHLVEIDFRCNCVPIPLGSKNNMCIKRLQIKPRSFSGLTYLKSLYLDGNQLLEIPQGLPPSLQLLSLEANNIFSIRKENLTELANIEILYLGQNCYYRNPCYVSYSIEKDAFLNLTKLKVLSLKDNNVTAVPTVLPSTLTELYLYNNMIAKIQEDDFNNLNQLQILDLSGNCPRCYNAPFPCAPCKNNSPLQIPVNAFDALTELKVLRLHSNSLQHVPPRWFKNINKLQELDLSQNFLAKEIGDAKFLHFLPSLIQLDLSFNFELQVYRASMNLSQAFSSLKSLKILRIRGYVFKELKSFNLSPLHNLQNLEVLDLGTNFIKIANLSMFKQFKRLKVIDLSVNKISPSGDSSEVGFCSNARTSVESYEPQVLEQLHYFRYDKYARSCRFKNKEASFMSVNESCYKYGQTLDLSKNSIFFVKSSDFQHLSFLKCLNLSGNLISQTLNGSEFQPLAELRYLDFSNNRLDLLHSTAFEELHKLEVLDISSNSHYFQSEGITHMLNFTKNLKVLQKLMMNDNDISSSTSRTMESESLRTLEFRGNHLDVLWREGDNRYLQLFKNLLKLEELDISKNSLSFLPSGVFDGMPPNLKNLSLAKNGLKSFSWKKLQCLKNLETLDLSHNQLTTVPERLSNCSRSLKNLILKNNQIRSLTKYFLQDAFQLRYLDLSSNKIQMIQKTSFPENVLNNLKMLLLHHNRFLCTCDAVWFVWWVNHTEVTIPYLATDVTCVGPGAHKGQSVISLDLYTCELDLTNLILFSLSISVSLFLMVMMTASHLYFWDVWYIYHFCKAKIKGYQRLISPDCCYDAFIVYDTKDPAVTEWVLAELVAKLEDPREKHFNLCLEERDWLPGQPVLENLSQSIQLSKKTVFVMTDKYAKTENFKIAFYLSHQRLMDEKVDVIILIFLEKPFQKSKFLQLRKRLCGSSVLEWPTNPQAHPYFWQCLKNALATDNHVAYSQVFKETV
Method in brief: as §1

Row | IC50 (human TLR9) | IC50 (human TLR8) | IC50 (human TLR7) | SMILES
1 | > 50 µM | 21.3 nM | 123 nM | Cc1c(-c2[nH]c3ccc(OC4CCN(C5COC5)CC4)cc3c2C(C)C)cn(C)c(=O)c1C [Example 50, 5-(3-isopropyl-5-((1-(oxetan-3-yl)piperidin-4-yl)oxy)-1H-indol-2-yl)-1,3,4-trimethylpyridin-2(1H)-one]
2 | > 50 µM | 2.6 nM | 19.3 nM | Cc1c(-c2[nH]c3ccc(OCC4CCN(C5COC5)CC4)cc3c2C(C)C)cn(C)c(=O)c1C [Example 51, 5-(3-isopropyl-5-((1-(oxetan-3-yl)piperidin-4-yl)methoxy)-1H-indol-2-yl)-1,3,4-trimethylpyridin-2(1H)-one]
3 | 7.81 µM | 5.8 nM | 6.1 nM | Cc1c(-c2[nH]c3ccc(OCC4CCN(C5COC5)CC4)cc3c2C(C)C)cn2cnnc2c1C [Example 52, 6-(3-isopropyl-5-((1-(oxetan-3-yl)piperidin-4-yl)methoxy)-1H-indol-2-yl)-7,8-dimethyl-[1,2,4]triazolo[4,3-a]pyridine]
4 | 0.494 µM | 3.3 nM | 1.9 nM | Cc1c(-c2[nH]c3ccc(OC4CCN(C)CC4)cc3c2C(C)C)cn2cnnc2c1C [Example 53, 6-(3-isopropyl-5-((1-methylpiperidin-4-yl)oxy)-1H-indol-2-yl)-7,8-dimethyl-[1,2,4]triazolo[4,3-a]pyridine]
5 | 1.25 µM | 3.1 nM | 1.5 nM | Cc1c(-c2[nH]c3ccc(OCC4CCN(C)CC4)cc3c2C(C)C)cn2cnnc2c1C [Example 54, 6-(3-isopropyl-5-((1-methylpiperidin-4-yl)methoxy)-1H-indol-2-yl)-7,8-dimethyl-[1,2,4]triazolo[4,3-a]pyridine]
6 | 1.62 µM | 4.3 nM | 2.6 nM | Cc1c(-c2[nH]c3ccc(OCC4CCN(C(C)C)CC4)cc3c2C(C)C)cn2cnnc2c1C [Example 55, 6-(3-isopropyl-5-((1-isopropylpiperidin-4-yl)methoxy)-1H-indol-2-yl)-7,8-dimethyl-[1,2,4]triazolo[4,3-a]pyridine]
7 | 19.3 µM | 19.4 nM | 26.3 nM | Cc1c(-c2[nH]c3ccc(OC4CCN(C5COC5)CC4)cc3c2C(C)C)cn2cnnc2c1C [Example 56, 6-(3-isopropyl-5-((1-(oxetan-3-yl)piperidin-4-yl)oxy)-1H-indol-2-yl)-7,8-dimethyl-[1,2,4]triazolo[4,3-a]pyridine]
8 | 18.6 µM | 14.5 nM | 33.6 nM | Cc1c(-c2[nH]c3ccc(OC4CCN(C(C)C)CC4)cc3c2C(C)C)cn2cnnc2c1C [Example 57, 6-(3-isopropyl-5-((1-isopropylpiperidin-4-yl)oxy)-1H-indol-2-yl)-7,8-dimethyl-[1,2,4]triazolo[4,3-a]pyridine]
9 | 2.44 µM | 5.1 nM | 1.4 nM | Cc1cc(-c2[nH]c3ccc(OCC4CN(C(C)C)C4)cc3c2C(C)C)cn2ncnc12 [Example 58, 6-(3-isopropyl-5-((1-isopropylazetidin-3-yl)methoxy)-1H-indol-2-yl)-8-methyl-[1,2,4] triazolo[1,5-a]pyridine]

Second part, the compound before the results:

Row | SMILES | IC50 (human TLR9) | IC50 (human TLR8) | IC50 (human TLR7)
10 | Cc1cc(-c2[nH]c3ccc(OCC4CCN(C5CCOCC5)CC4)cc3c2C(C)C)cn2ncnc12 [Example 44, 6-(3-isopropyl-5-((1-(tetrahydro-2H-pyran-4-yl)piperidin-4-yl)methoxy)-1H-indol-2-yl)-8-methyl-[1,2,4]triazolo[1,5-a]pyridine] | 1.03 µM | 1.4 nM | 0.6 nM
11 | Cc1c(-c2[nH]c3ccc(OC4CCN(C(C)C)CC4)cc3c2C(C)C)cn(C)c(=O)c1Cl [Example 45] | 2.2 µM | 2.2 nM | 9.6 nM
12 | Cc1c(-c2[nH]c3ccc(OC4CCN(C)CC4)cc3c2C(C)C)cn(C)c(=O)c1Cl [Example 46, 3-chloro-5-(3-isopropyl-5-((1-methylpiperidin-4-yl)oxy)-1H-indol-2-yl)-1,4-dimethylpyridin-2(1H)-one] | 3.75 µM | 3.4 nM | 5.6 nM
13 | Cc1cc(-c2[nH]c3ccc(OC4CCN(C(C)C)CC4)cc3c2C(C)C)cn2ncnc12 [Example 47, 6-(3-isopropyl-5-((1-isopropylpiperidin-4-yl)oxy)-1H-indol-2-yl)-8-methyl-[1,2,4]triazolo[1,5-a]pyridine] | 2.48 µM | 1 nM | 0.8 nM
14 | Cc1c(-c2[nH]c3ccc(OC4CCN(C(C)C)CC4)cc3c2C(C)C)cn(C)c(=O)c1C [Example 48, 5-(3-isopropyl-5-((1-isopropylpiperidin-4-yl)oxy)-1H-indol-2-yl)-1,3,4-trimethylpyridin-2(1H)-one] | 5.04 µM | 1 nM | 6.9 nM
15 | Cc1c(-c2[nH]c3ccc(OCC4CCN(C(C)C)CC4)cc3c2C(C)C)cn(C)c(=O)c1C [Example 49, 5-(3-isopropyl-5-((1-isopropylpiperidin-4-yl)methoxy)-1H-indol-2-yl)-1,3,4-trimethylpyridin-2(1H)-one] | 4.12 µM | 1.8 nM | 9.2 nM
